Assay results as given in ChEMBL document CHEMBL1201862, “PubChem BioAssay data set” (2004).
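Cultured in 96-well plates, cells were exposed to test compound for 48 hours across five concentrations. GI50: concentration for 50% inhibition of growth.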 Activity calls are given as the source filed them. No stated cut-off is given here; in the data, active = GI50 up to about 1.1 µM and inactive = higher.

Assays:
Experiment in all cases: growth of human tumour cells (NCI), 48 h
MOLT-4 = tested on: MOLT-4
RPMI-8226 = tested on: RPMI-8226
SW-620 = tested on: SW-620
SF-295 = tested on: SF-295
SK-MEL-28 = tested on: SK-MEL-28
PC-3 = tested on: PC-3
SNB-75 = tested on: SNB-75
HOP-92 = tested on: HOP-92
SN12C = tested on: SN12C
A498 = tested on: A498
HCT-15 = tested on: HCT-15
HCT-116 = tested on: HCT-116
OVCAR-3 = tested on: OVCAR-3
UO-31 = tested on: UO-31
SK-MEL-5 = tested on: SK-MEL-5
K562 = tested on: K562
HT-29 = tested on: HT-29
SNB-19 = tested on: SNB-19
TK-10 = tested on: TK-10
IGROV-1 = tested on: IGROV-1

| SMILES | GI50 (MOLT-4) | GI50 (RPMI-8226) | GI50 (SW-620) | GI50 (SF-295) | GI50 (SK-MEL-28) | GI50 (PC-3) | GI50 (SNB-75) | GI50 (HOP-92) | GI50 (SN12C) | GI50 (A498) | GI50 (HCT-15) | GI50 (HCT-116) | GI50 (OVCAR-3) | GI50 (UO-31) | GI50 (SK-MEL-5) | GI50 (K562) | GI50 (HT-29) | GI50 (SNB-19) | GI50 (TK-10) | GI50 (IGROV-1) |
| --- | --- | --- | --- | --- | --- | --- | --- | --- | --- | --- | --- | --- | --- | --- | --- | --- | --- | --- | --- | --- |
| C=C(Cl)c1c(OC)cccc1OCc1ccccc1 | 64.7 µM (inactive) | 43 µM (inactive) | 71 µM (inactive) | > 100 µM (inactive) | > 100 µM (inactive) | > 100 µM (inactive) | 23.5 µM (inactive) | 22.2 µM (inactive) | > 100 µM (inactive) | 62.4 µM (inactive) | 92.7 µM | 56.8 µM (inactive) | > 100 µM (inactive) | 55 µM (inactive) | 34.4 µM (inactive) | 48.2 µM (inactive) | 34.5 µM (inactive) | > 100 µM (inactive) | > 100 µM (inactive) | 57.5 µM (inactive) |
| N#CCCN(CCCN(C(=O)N(c1ccccc1)c1ccccc1)c1ccccc1)C(=O)Nc1ccccc1 | 11.5 µM (inactive) | 94 µM (inactive) | > 100 µM (inactive) | 76.6 µM (inactive) | > 100 µM (inactive) | 18.7 µM (inactive) | 14 µM (inactive) | > 100 µM (inactive) | – | > 100 µM (inactive) | > 100 µM | 29.6 µM (inactive) | > 100 µM (inactive) | 67 µM (inactive) | 24.9 µM (inactive) | 28.6 µM (inactive) | 32.3 µM (inactive) | > 100 µM (inactive) | > 100 µM (inactive) | – |
| CCOC(=O)NC(Nc1ccc(S(=O)(=O)Nc2ccc(OC)nn2)cc1)(C(F)(F)F)C(F)(F)F | 15.8 µM (inactive) | 20.6 µM (inactive) | 44.1 µM (inactive) | 37 µM (inactive) | 24.9 µM (inactive) | 21.3 µM (inactive) | 26.8 µM (inactive) | 28.5 µM (inactive) | 25.4 µM (inactive) | 26.3 µM (inactive) | 49.1 µM | 22.6 µM (inactive) | 20.7 µM (inactive) | > 100 µM (inactive) | 17.8 µM (inactive) | 32.2 µM (inactive) | 39.1 µM (inactive) | 43.2 µM (inactive) | 27.7 µM (inactive) | 22.8 µM (inactive) |
| CCOC(=O)Oc1cc2c(ccn2C)c2c1c1ccccc1n2C(=O)OCC | > 100 µM (inactive) | > 100 µM (inactive) | > 100 µM (inactive) | > 100 µM (inactive) | > 100 µM (inactive) | > 100 µM (inactive) | > 100 µM (inactive) | > 100 µM (inactive) | > 100 µM (inactive) | > 100 µM (inactive) | > 100 µM | > 100 µM (inactive) | > 100 µM (inactive) | > 100 µM (inactive) | > 100 µM (inactive) | > 100 µM (inactive) | > 100 µM (inactive) | – | > 100 µM (inactive) | > 100 µM (inactive) |
| O=C(Nc1ccccc1)c1cc(S(=O)(=O)n2ccnc2O)c(S)cc1Cl | > 100 µM (inactive) | > 100 µM (inactive) | > 100 µM (inactive) | > 100 µM (inactive) | > 100 µM (inactive) | > 100 µM (inactive) | 28.8 µM (inactive) | > 100 µM (inactive) | > 100 µM (inactive) | > 100 µM (inactive) | > 100 µM | > 100 µM (inactive) | > 100 µM (inactive) | > 100 µM (inactive) | > 100 µM (inactive) | > 100 µM (inactive) | > 100 µM (inactive) | > 100 µM (inactive) | > 100 µM (inactive) | > 100 µM (inactive) |
| Cc1oc(N)c(S(=O)(=O)c2ccc(Cl)cc2)c1C | 47.3 µM (inactive) | 40.2 µM (inactive) | > 100 µM (inactive) | 39.5 µM (inactive) | > 100 µM (inactive) | 23.7 µM (inactive) | 29.9 µM (inactive) | > 100 µM (inactive) | – | > 100 µM (inactive) | 34 µM | 39.4 µM (inactive) | 29.1 µM (inactive) | 37 µM (inactive) | 44.7 µM (inactive) | 53.6 µM (inactive) | 54.3 µM (inactive) | > 100 µM (inactive) | 83.6 µM (inactive) | 85.5 µM (inactive) |
| C[C@H]1SC(c2ccc(Cl)cc2Cl)N(NC(=O)c2ccncc2)C1=O (some centres undefined) | > 10 µM (inactive) | 35.6 µM (inactive) | – | 49.1 µM (inactive) | 31.3 µM (inactive) | 15.1 µM (inactive) | 45.7 µM (inactive) | 45.7 µM (inactive) | 45.9 µM (inactive) | 12.4 µM (inactive) | 42 µM | 20 µM (inactive) | 42 µM (inactive) | 25.3 µM (inactive) | 19.2 µM (inactive) | 23.5 µM (inactive) | 53 µM (inactive) | 43.2 µM (inactive) | – | 41.2 µM (inactive) |
